Measurements as given in patent US7491819B1 (priority 2004, dated 2009).

biological target: T1, HIV-integrase (Human immunodeficiency virus type 1 group M subtype B, UniProt P12497); experiment: HIV-Integrase Inhibition Activity (SPA bead strand-transfer assay); format: biochemical; details: Table 1; read-out: Activity (HIV-integrase inhibition, IC50 class)
T1 construct: Recombinant integrase (0.26 ng) was incubated with the beads
How it was run: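 Strand-transfer read-out: CPM from P33-labelled target DNA (0.1 fmol) joined to bead-bound biotin substrate DNA (5 pmole), with EDTA stop at 10 mM final. Integrase (0.26 ng) prebound to streptavidin SPA beads 90 min, 37° C, and washed before adding inhibitor.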

`CNC(=O)c1ncn(-c2cc(F)ccc2CNC(=O)c2nc3n(c(=O)c2O)CCOC3(C)C)n1` [Example 65, Pyrimido[2,1-c][1,4]oxazine-2-carboxamide, 4,6,7,9-tetrahydro-3-hydroxy-N-[(1R)-2-hydroxy-1-phenylethyl]-9,9-dimethyl-4-oxo-] and `CN(C)C(=O)c1ncn(-c2cc(F)ccc2CNC(=O)c2nc3n(c(=O)c2O)CCOC3(C)C)n1` [Example 63, Pyrimido[2,1-c][1,4]oxazine-2-carboxamide, N-[[2-[3-[(dimethylamino)carbonyl]-1H-1,2,4-triazol-1-yl]-4-fluorophenyl]methyl]-4,6,7,9-tetrahydro-3-hydroxy-9,9-dimethyl-4-oxo-] fall in the same range of IC50: 2 to 100 nM for the first, 2 to 100 nM for the second.

`CC1(C)OCCn2c1nc(C(=O)NCc1ccc(F)cc1-c1cc(Br)no1)c(O)c2=O` [Example 212, Pyrimido[2,1-c][1,4]oxazine-2-carboxamide, N-[[2-(3-bromo-5-isoxazolyl)-4-fluorophenyl]methyl]-4,6,7,9-tetrahydro-3-hydroxy-9,9-dimethyl-4-oxo-] and `Cc1cnc(-c2cc(F)ccc2CNC(=O)c2nc3n(c(=O)c2O)CCOC3(C)C)o1` [Example 86, Pyrimido[2,1-c][1,4]oxazine-2-carboxamide, N-[[4-fluoro-2-(5-methyl-2-oxazolyl)phenyl]methyl]-4,6,7,9-tetrahydro-3-hydroxy-9,9-dimethyl-4-oxo-] fall in the same range of IC50: 2 to 100 nM for the first, 2 to 100 nM for the second.

First: CC1(C)OCCn2c1nc(C(=O)NCc1ccc(N3CCOCC3)cc1F)c(O)c2=O [Example 24, Pyrimido[2,1-c][1,4]oxazine-2-carboxamide, N-[[2-fluoro-4-(4-morpholinyl)phenyl]methyl]-4,6,7,9-tetrahydro-3-hydroxy-9,9-dimethyl-4-oxo-]
Second: CC1(C)OCCn2c1nc(C(=O)NCc1ccc(-n3nccn3)cc1F)c(O)c2=O [Example 58, Pyrimido[2,1-c][1,4]oxazine-2-carboxamide, N-[[2-fluoro-4-(2H-1,2,3-triazol-2-yl)phenyl]methyl]-4,6,7,9-tetrahydro-3-hydroxy-9,9-dimethyl-4-oxo-]
The IC50 of the first is higher: 100 to 1000 nM for the first, 2 to 100 nM for the second. The second is the more potent here.

`CCC1(CC)OCCn2c1nc(C(=O)NCc1ccccc1N1CCCCS1(=O)=O)c(O)c2=O` [Example 207, Pyrimido[2,1-c][1,4]oxazine-2-carboxamide, 4,6,7,9-tetrahydro-3-hydroxy-9,9-diethyl-4-oxo-N-[[2-(tetrahydro-1,1-dioxido-2H-1,2-thiazin-2-yl)phenyl]methyl]] and `CCC1(CC)OCCn2c1nc(C(=O)NCc1ccc(F)cc1C(=O)NC)c(O)c2=O` [Example 120, Pyrimido[2,1-c][1,4]oxazine-2-carboxamide, 9,9-diethyl-N-[[4-fluoro-2-[(methylamino)carbonyl]phenyl]methyl]-4,6,7,9-tetrahydro-3-hydroxy-4-oxo-] fall in the same range of IC50: 2 to 100 nM for the first, 2 to 100 nM for the second.

`CS(=N)c1cc(F)ccc1CNC(=O)c1nc2n(c(=O)c1O)CCOC2(C)C` (centres unmarked) [Example 103, Pyrimido[2,1-c][1,4]oxazine-2-carboxamide, N-[[4-fluoro-2-(S-methylsulfinimidoyl)phenyl]methyl]-4,6,7,9-tetrahydro-3-hydroxy-9,9-dimethyl-4-oxo-] and `C#Cc1cc(F)ccc1CNC(=O)c1nc2n(c(=O)c1O)CCOC2(C)C` [Example 88, Pyrimido[2,1-c][1,4]oxazine-2-carboxamide, N-[(2-ethynyl-4-fluorophenyl)methyl]-4,6,7,9-tetrahydro-3-hydroxy-9,9-dimethyl-4-oxo-] fall in the same range of IC50: 2 to 100 nM for the first, 2 to 100 nM for the second.

`CC1(C)OCCn2c1nc(C(=O)NCc1ccc(F)cc1C(F)(F)F)c(O)c2=O` [Example 246, Pyrimido[2,1-c][1,4]oxazine-2-carboxamide, N-[[4-fluoro-2-(trifluoromethyl)phenyl]methyl]-4,6,7,9-tetrahydro-3-hydroxy-9,9-dimethyl-4-oxo-] and `CC1(C)OCCn2c1nc(C(=O)NCc1ccc(F)cc1N1CCC1=O)c(O)c2=O` [Example 126, N-(4-Fluoro-2-(2-oxoazetidin-1-yl)benzyl)-3-hydroxy-9,9-dimethyl-4-oxo-4,6,7,9-tetrahydropyrimido[2,1-c][1,4]oxazine-2-carboxamide] fall in the same range of IC50: 2 to 100 nM for the first, 2 to 100 nM for the second.

First: CC1(C)OCCn2c1nc(C(=O)NCc1ccc(F)cc1-c1csnn1)c(O)c2=O [Example 84, Pyrimido[2,1-c][1,4]oxazine-2-carboxamide, N-[[4-fluoro-2-(1,2,3-thiadiazol-4-yl)phenyl]methyl]-4,6,7,9-tetrahydro-3-hydroxy-9,9-dimethyl-4-oxo-]
Second: Cc1ncn(-c2ccc(CNC(=O)c3nc4n(c(=O)c3O)CCOC4(C)C)c(F)c2)n1 [Example 83, Pyrimido[2,1-c][1,4]oxazine-2-carboxamide, N-[[2-fluoro-4-(3-methyl-1H-1,2,4-triazol-1-yl)phenyl]methyl]-4,6,7,9-tetrahydro-3-hydroxy-9,9-dimethyl-4-oxo-]
The IC50 of the first is lower: 2 to 100 nM for the first, > 1000 nM for the second.

`CC(=O)N1CCN(C(=O)c2ncn(-c3cc(F)ccc3CNC(=O)c3nc4n(c(=O)c3O)CCOC4(C)C)n2)CC1` [Example 66, Pyrimido[2,1-c][1,4]oxazine-2-carboxamide, N-[[2-[3-[(4-acetyl-1-piperazinyl)carbonyl]-1H-1,2,4-triazol-1-yl]-4-fluorophenyl]methyl]-4,6,7,9-tetrahydro-3-hydroxy-9,9-dimethyl-4-oxo-] and `CC1(C)OCCn2c1nc(C(=O)NCc1ccc(F)cc1N1C(=O)CC[C@@H]1CN=[N+]=[N-])c(O)c2=O` [Example 132, (R)—N-(2-(2-(Azidomethyl)-5-oxopyrrolidin-1-yl)-4-fluorobenzyl)-3-hydroxy-9,9-dimethyl-4-oxo-4,6,7,9-tetrahydropyrimido[2,1-c][1,4]oxazine-2-carboxamide] fall in the same range of IC50: 2 to 100 nM for the first, 2 to 100 nM for the second.

`Cc1ccc(CNC(=O)c2nc3n(c(=O)c2O)CCOC3C)cc1C` (centres unmarked) [Example 8, Pyrimido[2,1-c][1,4]oxazine-2-carboxamide, N-[(3,4-dimethylphenyl)methyl]-4,6,7,9-tetrahydro-3-hydroxy-9-methyl-4-oxo-] and `CSCCC1OCCn2c1nc(C(=O)NCc1ccc(F)cc1)c(O)c2=O` (centres unmarked) [Example 208, Pyrimido[2,1-c][1,4]oxazine-2-carboxamide, N-[(4-fluorophenyl)methyl]-4,6,7,9-tetrahydro-3-hydroxy-9-[2-(methylthio)ethyl]-4-oxo-] fall in the same range of IC50: 2 to 100 nM for the first, 2 to 100 nM for the second.

`CC1(C)OCCn2c1nc(C(=O)NCc1ccc(F)c(Br)c1)c(O)c2=O` [Example 30, Pyrimido[2,1-c][1,4]oxazine-2-carboxamide, N-[(3-bromo-4-fluorophenyl)methyl]-4,6,7,9-tetrahydro-3-hydroxy-9,9-dimethyl-4-oxo-] and `CC1(C)OCCn2c1nc(C(=O)NCc1ccc(Cl)c(Cl)c1)c(O)c2=O` [Example 221, Pyrimido[2,1-c][1,4]oxazine-2-carboxamide, N-[(3,4-dichlorophenyl)methyl]-4,6,7,9-tetrahydro-3-hydroxy-9,9-dimethyl-4-oxo-] fall in the same range of IC50: 2 to 100 nM for the first, 2 to 100 nM for the second.

`CC1(C)OCCn2c1nc(C(=O)NCc1cccc(Cl)c1)c(O)c2=O` [Example 226, Pyrimido[2,1-c][1,4]oxazine-2-carboxamide, N-[(3-chlorophenyl)methyl]-4,6,7,9-tetrahydro-3-hydroxy-9,9-dimethyl-4-oxo-] and `CC1(C)OCCn2c1nc(C(=O)NCc1c(F)cccc1Cl)c(O)c2=O` [Example 273, Pyrimido[2,1-c][1,4]oxazine-2-carboxamide, N-[(2-chloro-6-fluorophenyl)methyl]-4,6,7,9-tetrahydro-3-hydroxy-9,9-dimethyl-4-oxo-] fall in the same range of IC50: 2 to 100 nM for the first, 2 to 100 nM for the second.

`CC1(C)OCCn2c1nc(C(=O)NCc1ccccc1-c1cccc3ncccc13)c(O)c2=O` [Example 197, Pyrimido[2,1-c][1,4]oxazine-2-carboxamide, 4,6,7,9-tetrahydro-3-hydroxy-9,9-dimethyl-4-oxo-N-[[2-(5-quinolinyl)phenyl]methyl]-] and `CC1(C)OCCn2c1nc(C(=O)NCc1ccccc1-c1cccc(C(=O)N3CCCC3)c1)c(O)c2=O` [Example 172, Pyrimido[2,1-c][1,4]oxazine-2-carboxamide, 4,6,7,9-tetrahydro-3-hydroxy-9,9-dimethyl-4-oxo-N-[[3′-(1-pyrrolidinylcarbonyl)[1,1′-biphenyl]-2-yl]methyl]-] fall in the same range of IC50: 2 to 100 nM for the first, 2 to 100 nM for the second.

`COc1ccc(CNC(=O)c2nc3n(c(=O)c2O)CCOC3(C)C)c(OC)c1` [Example 232, Pyrimido[2,1-c][1,4]oxazine-2-carboxamide, N-[(2,4-dimethoxyphenyl)methyl]-4,6,7,9-tetrahydro-3-hydroxy-9,9-dimethyl-4-oxo-] and `CC1(C)OCCn2c1nc(C(=O)NCc1ccc(F)cc1C#CCS(C)(=O)=O)c(O)c2=O` [Example 92, Pyrimido[2,1-c][1,4]oxazine-2-carboxamide, N-[[4-fluoro-2-[3-(methylsulfonyl)-1-propynyl]phenyl]methyl]-4,6,7,9-tetrahydro-3-hydroxy-9,9-dimethyl-4-oxo-] fall in the same range of IC50: 2 to 100 nM for the first, 2 to 100 nM for the second.

`CSc1ccc(CNC(=O)c2nc3n(c(=O)c2O)CCOC3(C)C)cc1` [Example 143, Pyrimido[2,1-c][1,4]oxazine-2-carboxamide, 4,6,7,9-tetrahydro-3-hydroxy-9,9-dimethyl-N-[[4-(methylthio)phenyl]methyl]-4-oxo-] and `CC1(C)OCCn2c1nc(C(=O)NCc1ccc(Cl)cn1)c(O)c2=O` [Example 29, N-((5-Chloropyridin-2-yl)methyl)-3-hydroxy-9,9-dimethyl-4-oxo-4,6,7,9-tetrahydropyrimido[2,1-c][1,4]oxazine-2-carboxamide] fall in the same range of IC50: 2 to 100 nM for the first, 2 to 100 nM for the second.

`CCC1OCCn2c1nc(C(=O)NCc1ccc(F)cc1-n1cncn1)c(O)c2=O` (centres unmarked) [Example 16, Pyrimido[2,1-c][1,4]oxazine-2-carboxamide, 9-ethyl-N-[[4-fluoro-2-(1H-1,2,4-triazol-1-yl)phenyl]methyl]-4,6,7,9-tetrahydro-3-hydroxy-4-oxo-] gave an IC50 of 2 to 100 nM.
